Patent US8475772B2, “Peptide-based oral care surface reagents for personal care” (E I du Pont de Nemours and Company, priority 2003, dated 2013)
“And” between values parts separate entries of the source, which are not always exact repeats. Equal values may be shown once. Where no end group is shown, it is not given here.

How the values were obtained:
[1] = Interfiber friction test, low load, against another single hair fiber; design: species or system human; conditions: mean of fibers; normal force 8.5 mg
Protocol: (§1) IL) in distilled water. The aqueous solution was mixed at 7000 rpm for 4 min using a Silverson […] High Shear Laboratory Mixer (Silverson Machines, Inc., East Longmeadow, Mass.) with a general purpose disintegrating head and a 0.95 cm mini-micro tubular frame. A 0.5% solution of Dow Corning® 929 Cationic Emulsion (Dow Corning Corp., Midland, Mich.), a commercial conditioning agent, in distilled water was prepared using identical mixing conditions. European dark brown hair swatches (International Hair Importers and Products) were cleaned before testing by immersing in isopropanol for 30 min, then washing 10 times with distilled water. Single hair fibers from these swatches were sent to Textile Research Institute (TRI), Princeton, N.J., for friction testing. […] Frictional force measurements of treated hair fibers were measured by the Interfiber friction test using a single-fiber friction apparatus, as described by […] et al. (J. Appl. Polymer Sci., 85:394-414 (2002)). Hair fibers were evaluated at high normal forces (high load) (0.74 g) against a chromed steel wire, crosshead speed of 1 mm/min, using an Instron Tensile Testing machine. Low normal forces (low load) (8.5 mg) were measured against another single hair fiber using the TRI/ScanTM Surface Force Analyzer (Textile Research Institute). […]

[2] = Fiber friction test, high load, against chromed steel wire; design: species or system human; conditions: normal force 0.74 g
Protocol: as §1

Conditioner: SEQ ID NO:46 covalently linked to behenyl alcohol; tested at 0.25% with 1.5% lecithin in water (RTNAADHPAAVT; also: covalently linked to behenyl alcohol, site not given here)
Friction Force Ff, Low Load, Mean [1]: 0.304 mg | Friction Force Ff, High Load, Mean ([2]; mean of fibers): 0.055 g | Friction Force Ff, High Load ([2]; single fibers 1-4): 0.041 g and 0.057 g and 0.070 g and 0.051 g
